In the Bradley open melting point set (2014) one finds melting point data, which are given here for 92 compounds.

Molecules are shown by their SMILES. Values joined by “and” are separate entries in the source; they are usually repeats but may differ in a detail not shown here. Identical values can stand only once.

As for `N=c1nc(O)c2ncn(COCCO)c2[nH]1` [Acyclovir], the melting point (in general, the temperature, or range, at which the solid turns liquid) came out at 255 °C.

`O=C(O)c1cc[n+]([O-])cc1` [isonicotinic acid n-oxide]: the melting point was 270 °C. Take `C[C@@H]1CN[C@@H](C)CN1` [trans-2,5-dimethylpiperazine]: the melting point stood at 117 °C. The compound `CP(=O)(O)CC[C@@H](N)C(=O)O` [2-Amino-4-(Hydroxymethyl-Phosphinyl)Butanoic Acid] came in with a melting point of 230 °C. As for `CC(C)(C)c1cc(C=O)cc(C(C)(C)C)c1O` [3,5-di-tert-butyl-4-hydroxybenzaldehyde], the melting point was determined as 188 °C. As for `CN1CCC[C@H]1c1cccnc1` [(S)-nicotine], the figure is -79 °C; as for `NNC(=O)c1ccncc1` [Isonicotinohydrazide], 171 °C; as for `COc1ccc(B(O)O)cc1F` [3-fluoro-4-methoxybenzeneboronic acid], 238 °C.

In the case of `Nc1cc2ccccc2cc1N` [2,3-diaminonaphthalene], the melting point is 195 °C. As to `C(#Cc1ccccc1)c1ccccc1` [diphenylacetylene], the melting point turned out to be 60 °C. As for `O=Cc1cc(O)ccc1O` [2,5-dihydroxybenzaldehyde], the figure is 99 °C; as for `C=CCCCCC(=O)O` [6-heptenoic acid], -6 °C. As for `CCOC(=O)c1ccc(-n2c(C)ccc2C)cc1` [OSM-S-40], the figure is 60.5 °C; as for `CCCCCCCCCCCC` [N-dodecane], -10 °C. The result for `c1ccc2c(c1)ccc1ccccc12` [phenanthrene] reads 99.2 °C and 101 °C and 99 °C. Compound `CCOC(=O)c1ccc(CBr)cc1` [ethyl 4-(bromomethyl)benzoate] registered a melting point of 31 °C. Compound `CCC1(c2ccccc2)C(=O)NCNC1=O` [Primidone] gave a melting point of 282 °C.

On to `O=C(O)c1ccccc1N=Nc1ccc(O)cc1` [2-(p-hydroxyphenylazo)benzoic acid], for which the melting point came to 206 °C. The compound `OB(O)c1ccc(OC(F)(F)F)cc1` [4-(trifluoromethoxy)benzeneboronic acid] displayed a melting point of 123 °C. As for `BrC(Br)C(Br)Br` [1,1,2,2-Tetrabromoethane], the figure is 0 °C; as for `Cc1ccc(S(=O)(=O)O)cc1` [p-toluenesulfonic acid], 104 °C. The result for `CCCCCCS` [1-hexanethiol] reads -80 °C; that for `Cc1cc(Br)c(C)cc1Br` [2,5-dibromo-p-xylene], 73 °C. In the case of `O=C(Cl)c1cccc2ccccc12` [1-naphthoyl chloride], the melting point amounted to 18 °C.

The compound `O=C(O)C=CC(=O)O` [maleic acid] showed a melting point of 134 °C. In the case of `COc1ccc(Cl)cc1I` [4-chloro-2-iodoanisole], the melting point amounted to 46 °C. The result for `C[Si]1(C)O[Si](C)(C)O[Si](C)(C)O[Si](C)(C)O[Si](C)(C)O1` reads -44 °C; that for `O=C1OC2(c3ccc(O)cc3Oc3cc(O)ccc32)c2ccccc21` [Fluorescein], 315 °C. The result for `Fc1ccc(C2(Cn3cncn3)OC2c2ccccc2Cl)cc1` (configuration not stated) reads 125 °C; that for `Brc1ccc(Br)c(Br)c1` [1,2,4-Tribromobenzene], 44 °C; that for `CCP(=O)(CC)CC` [triethylphosphine oxide], 49 °C. As for `C=CCO` [allyl alcohol], the figure is -129 °C; as for `Clc1ccc(C(Cl)(Cl)Cl)cc1` [4-chlorobenzotrichloride], 6 °C; as for `O=C(NCCCCc1ccccc1)c1cc([N+](=O)[O-])cc([N+](=O)[O-])c1` [benzamide, 3,5-dinitro-N-(4-phenylbutyl)-], 166 °C.

With `CC(C(=O)O)c1ccc(-c2ccccc2)c(F)c1` (configuration not stated) [Flurbiprofen], the melting point was determined as 110 °C.

In turn, `Ic1ccccc1` [iodobenzene] returned a melting point of -31 °C. As to `O=C(O)c1cc(I)ccc1Cl` [2-chloro-5-iodobenzoic acid], the melting point came to 159 °C. The compound `COc1ccccc1C=O` [o-anisaldehyde] yielded a melting point of 38 °C. In the case of `CC(=O)NC1C(OC(C)=O)OC(COC(C)=O)C(OC(C)=O)C1OC(C)=O` (configuration not stated), the melting point worked out at 140 °C. `Nc1cccc(C(F)(F)F)c1` [3-(trifluoromethyl)aniline]: the melting point came out at 6 °C.

Turning to `COB(OC)OC` [Trimethyl borate], the melting point is -34 °C. The result for `COc1cccc(OC)c1CN` [2,6-dimethoxybenzylamine] reads 85 °C; that for `O=C(Cl)C(=O)Cl` [Ethanedioyl dichloride], -9 °C; that for `Fc1ccc(Cl)cc1` [1-chloro-4-fluorobenzene], -22 °C. As to `O=C(CO)[C@@]3(O)CC[C@H]2[C@@H]4CC\C1=C\C(=O)\C=C/[C@]1(C)[C@H]4C(=O)C[C@@]23C` [prednisone], the melting point was 234 °C (2×) and 237 °C. The result for `CCc1ccc(O)cc1` [4-ethylphenol] reads 47 °C. `Nc1nc2c(ncn2[C@@H]2O[C@@H](CO)[C@H](O)[C@H]2O)c(=O)[nH]1` [Guanosine] had a melting point of 239 °C. `c1ccc2c(c1)c1ccccc1c1ccccc21` [Triphenylene] displayed a melting point of 199 °C. Compound `O=c1[nH]c(=O)n([C@H]2C[C@H](O)[C@@H](CO)O2)cc1I` [Idoxuridine] returned a melting point of 165 °C. In turn, `CC(=O)c1ccccc1N` [o-aminoacetophenone] yielded a melting point of 20 °C. In turn, `Nc1cccc([N+](=O)[O-])c1` [m-nitroaniline] returned a melting point of 114 °C. Turning to `CN(C)c1ccc(/C=C2\C(=O)C3CCC(C)(C2=O)C3(C)C)cc1` (configuration not stated), the melting point was found to be 153 °C.

For `CC(O)C(C)O` (configuration not stated) [Butane-2,3-diol], the melting point came out at 25 °C. The result for `CCCCC(=O)CC` [Heptan-3-one] reads -39 °C; that for `N#Cc1cc(Cl)cc(Cl)c1` [3,5-dichlorobenzonitrile], 66 °C; that for `CN(C)CCCN` [N,N-dimethyl-1,3-propanediamine], -70 °C. In turn, `[2H]OC([2H])([2H])C([2H])([2H])[2H]` [(~2~H_5_)Ethan(~2~H)ol] showed a melting point of -114 °C. `CC(=O)Nc1ccc(C(=O)O)cc1` [4-acetamidobenzoic acid] yielded a melting point of 260 °C. The result for `N#Cc1ccc(O)c([N+](=O)[O-])c1` [4-Hydroxy-3-nitrobenzonitrile] reads 141 °C. As for `O=[N+]([O-])c1cccc(I)c1` [1-iodo-3-nitrobenzene], the figure is 37 °C. `CCCCOC(=O)c1ccccc1` [N-butyl benzoate]: the melting point was -22 °C. The result for `NS(=O)(=O)c1c(F)cccc1F` [2,6-difluorobenzenesulfonamide] reads 190 °C; that for `C[C@H](Cc1ccc(O)c(O)c1)[C@@H](C)Cc1ccc(O)c(O)c1` [nordihydroguaiaretic acid], 186 °C.

`CC1CCCCC1` [Methylcyclohexane] came in with a melting point of -127 °C. The compound `ClCCOc1ccccc1` [b-chlorophenetole] displayed a melting point of 28 °C.

In turn, `N#Cc1cccnc1` [3-cyanopyridine] gave a melting point of 50 °C. The result for `OB(O)c1cccc(Cl)c1Cl` [2,3-dichlorobenzeneboronic acid] reads 238 °C; that for `CCCCCl` [1-chlorobutane], -123 °C; that for `CCC(Br)CBr` (configuration not stated) [1,2-dibromobutane], -65 °C. `COc1ccc(C=O)cc1` [p-anisaldehyde]: the melting point amounted to 1 °C.

In turn, `CC(C)(C)c1ccc(B(O)O)cc1` [4-tert-butylbenzeneboronic acid] returned a melting point of 194 °C. Compound `Cc1cn(C2CC(N=[N+]=[N-])C(CO)O2)c(=O)[nH]c1=O` (configuration not stated) [zidovudine] registered a melting point of 106 °C. As for `OCCC12CC3CC(CC(C3)C1)C2` [1-adamantaneethanol], the figure is 74 °C; as for `COc1ccccc1-c1ccc(C=C(C(C)=O)C(C)=O)o1` [3-{[5-(2-Methoxyphenyl)-2-furyl]methylene}pentane-2,4-dione], 146 °C; as for `N#Cc1ccc(C(N)=O)cc1` [4-cyanobenzamide], 227 °C. For `C=C(C)C(=O)OCC` [Ethyl methacrylate], the melting point was -75 °C. The compound `O=C1Nc2ccc(Cl)cc2C(c2ccccc2Cl)=NC1O` (configuration not stated) [Lorazepam] displayed a melting point of 167 °C.

Compound `O=C1OC(=O)C23Cc4ccccc4CC12Cc1cc2c(cc1C3)CC2` (configuration not stated) showed a melting point of 250 °C.

`CCCN(CC1CC1)c1c([N+](=O)[O-])cc(C(F)(F)F)cc1[N+](=O)[O-]` [profluralin]: the melting point was determined as 32.5 °C. The result for `O=[N+]([O-])c1cc([N+](=O)[O-])c2ccccc2c1O` [2,4-dinitro-1-naphthol] reads 132 °C; that for `COC(=O)/C=C/C(=O)OC` [dimethyl_fumarate], 104 °C.

In the case of `C[C@H](CCC(=O)O)[C@H]1CC[C@H]2[C@@H]3[C@H](O)C[C@@H]4C[C@H](O)CC[C@]4(C)[C@H]3C[C@H](O)[C@]12C` [cholic acid], the melting point is 201 °C. As for `O=CC(=Cc1ccco1)c1ccccc1` [3-(2-furyl)-2-phenylpropenal], the figure is 59 °C.

Consider `Cc1cc(Br)c(C)cc1Br` [2,5-Dibromo-p-xylene], for which the melting point is 74 °C. In turn, `CCN1CCCC1CNC(=O)c1cc(S(N)(=O)=O)ccc1OC` (configuration not stated) [sulpiride] came in with a melting point of 178 °C.

Turning to `CC1(C)[C@H]2CC[C@](C)(C2)[C@H]1O` [(1R)-endo-fenchyl alcohol], the melting point was found to be 41 °C. Compound `O=C(O)Cc1ccccc1Nc1c(Cl)cccc1Cl` [diclofenac] returned a melting point of 157 °C.

In turn, `Cc1cccc(C)c1N` [2,6-dimethylaniline] gave a melting point of 12 °C. The result for `ON=Cc1ccc(O)cc1` [p-Hydroxybenzaldehyde oxime] reads 112 °C; that for `N#Cc1ccc(C#N)cc1` [1,4-dicyanobenzene], 226 °C. The result for `N#Cc1ccc(I)cc1` [4-iodobenzonitrile] reads 126 °C; that for `CCCN(CCC)S(=O)(=O)c1ccc(C(=O)O)cc1` [probenecid], 199 °C.
